This note sets out measurements from PubChem BioAssay AID2060623 (Molecular Pharmacology Branch, DTP, NCI, 2025).

In general, viability, T/C refers to the result in the treated group divided by that in the control group, in per cent. A word on the IC50: it is the concentration that inhibits the measured activity by half.

SMILES strings stand for the structures. Several values for one entry are separate records, joined by “and”; a condition that tells them apart may be missing. Equal entries are not always repeated.

The assay relates to 227483-062-R1-J1-PDC complex spheroids with HUVEC/MSC, viability. Put plainly: Anticancer human tumor 227483-062-R1-J1-PDC patient-derived pancreatic carcinoma cell line growth inhibition [CLK]. The settings on record: for viability, T/C: stronger effect = lower value; for IC50: curve of compound. From the text: A high-throughput screen of multi-cell type tumor spheroids was designed to identify active combinations of […] and targeted small molecules. Complex spheroids include a stromal component modeled by human endothelial cells (HUVEC) and fibroblasts modeled by human mesenchymal stem cells (MSCs). The concentration ranges selected for each drug and investigational agent were based upon clinically achievable concentrations if the clinical Cmax of the agent was known.
Compounds. The drugs and investigational agents: cirtuvivint (SM08502; NSC835563), CC-671 (NSC850746), vemurafenib (NSC761431), tapotoclax (NSC804041), sotorasib (NSC818433), adagrasib (NSC831453), MRTX-1133 (NSC836407), BAY2416964 (NSC825713), copanlisib (NSC816437), inavolisib (NSC800729), abemaciclib (NSC768073), osimertinib (NSC779217), entinostat (NSC756642), eltanexor (KPT-8602, NSC794443), venetoclax (NSC766270), ceralasertib (NSC777638), bortezomib (NSC756655), olaparib (NSC753686), talazoparib (NSC767125), alisertib (NSC759677), peposertib (NSC802822), gemcitabine (NSC613327), 5-fluorouracil (NSC19893), SN-38 (NSC673596), oxaliplatin (NSC266046), paclitaxel (NSC125973), and doxorubicin (NSC123127), were obtained from the National Cancer Institute (NCI) Developmental Therapeutics Program Chemical Repository. The FDA-approved anticancer drug set is available from the Developmental Therapeutics Program at https://dtp.cancer.gov/organization/dscb/obtaining/available plates.htm. […] The stock solutions were prepared in dimethyl sulfoxide (DMSO, Sigma-Aldrich, St. Louis, MO, cat. D2650), except for the platinum complexes which were prepared in saline (Quality Biological, Gaithersburg, MD, cat. 114-055-101), at 800-fold the tested concentration and stored at -70 degrees C prior to their use. All drugs and investigational agents were tested over a range starting from a high concentration at or near the clinical Cmax and decreasing in half-log increments. If the clinical Cmax for an agent had not been determined, the highest concentration tested was 10 microM.
Cell Culture. All cells were maintained in an incubator at 37 degrees C and 5% CO2 with 95% humidity. The PDC lines were cultured according to standard operating procedures established by the NCI PDMR. Briefly, all PDCs were thawed and cultured in Matrigel-coated flasks prepared with a working solution of 1X Ham's F-12 nutrient mix, without supplementation (Invitrogen, Waltham, MA, cat. 11765054), 100 U/mL penicillin-streptomycin (Invitrogen, cat. 15140122), and 2.5% Matrigel (Corning Inc., Corning, NY, cat. 354248) for the first three passages. The 947758-054-R-J2-PDC line was cultured in 6B/Colon 1A media, which includes advanced DMEM/F-12 (Thermo Fisher Scientific, cat. 12634028), 10 mM HEPES (Thermo Fisher Scientific, cat. 15630080), 1X GlutaMAX supplement (Thermo Fisher Scientific, cat. 35050061), 0.1 mg/mL primocin (InvivoGen, cat. ant-pm-2), 10% defined fetal bovine serum, heat inactivated (HyClone Laboratories Inc., cat. SH30070.03HI), 1.25 mM N-Acetyl-L-cysteine (Sigma-Aldrich, cat. A9165), 10 mM nicotinamide (Sigma-Aldrich, cat. N0636), 1X B-27 supplement (Thermo Fisher Scientific, cat. 17504044), 1X N-2 supplement (Thermo Fisher Scientific, cat. 17502048), and 10 microM Y-27632 dihydrochloride (Tocris Bioscience, cat. 1254). The 876862-298-R-J1-PDC was cultured in 6E media, which includes all 6B/Colon 1A media components plus 50% L-WRN conditioned media (ATCC, cat. CRL-3276), 50 ng/mL recombinant human EGF recombinant protein (hEGF; Thermo Fisher Scientific, cat. PHG0311), 10 ng/mL recombinant human fibroblast growth factor 10 (hGFG-10; PeproTech, cat. 100-26), 1 ng/mL recombinant human fibroblast growth factor 2 (hFGF-2; PeproTech, cat. 100-18B), and 1 µM prostaglandin E2 (PGE2; Tocris, cat. 2296). The 227483-062-R1-J1-PDC line was cultured in Panc media, containing all 6E components except hFGF-2, with the addition of 500 nM SB-431542 (Selleckchem, cat. S1067) and 10 nM gastrin (Tocris, cat. 3006). […]
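Note: spheroids exposed to compounds for seven days before readout.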
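Throughout, for viability, T/C: percent of DMSO vehicle control luminescence as 100% viability.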

For the compound `CC(=O)O[C@H]1C(=O)[C@@]2(C)[C@H]([C@H](OC(=O)c3ccccc3)[C@]3(O)C[C@H](OC(=O)[C@H](O)[C@@H](NC(=O)c4ccccc4)c4ccccc4)C(C)=C1C3(C)C)[C@]1(OC(C)=O)CO[C@@H]1C[C@@H]2O`, the 50% inhibitory concentration (IC50) was under 31.6 nM. Besides, under “compound 0.0316 µM”, the viability, T/C is 37.1% and 25.6%. Where the note is “compound 0.1 µM”, the viability, T/C was 28.5% and 24%. The viability, T/C (compound 0.316 µM) is 28.2% and 29.5%. Besides, where the note is “compound 1 µM”, the viability, T/C was 37.5% and 31.8%. Where the note is “compound 3.16 µM”, the viability, T/C is 50.2% and 38.9%. For the same compound, the viability, T/C (compound 10 µM) is 60.8% and 52.3%.

Turning to `CC1(C)CCC(CN2CCN(c3ccc(C(=O)NS(=O)(=O)c4ccc(NCC5CCOCC5)c([N+](=O)[O-])c4)c(Oc4cnc5[nH]ccc5c4)c3)CC2)=C(c2ccc(Cl)cc2)C1`, the half-maximal inhibitory concentration (IC50) was 6220 nM and 5970 nM. For the same compound, the viability, T/C (compound 0.0316 µM) was 92.4% and 103%. Besides, the viability, T/C (compound 0.1 µM) is 112% and 85.4%. In addition, the viability, T/C (compound 0.316 µM) was 95.4% and 94.4%. For the same compound, the viability, T/C (compound 1 µM) was 107% and 104%. Further, the viability, T/C (compound 3.16 µM) was 106% and 112%. Besides, for the setting “compound 10 µM”, the viability, T/C was 13.2% and 9.57%.

For `CC1COCCN1c1cc(C2(S(C)(=N)=O)CC2)nc(-c2ccnc3[nH]ccc23)n1` (stereo not drawn), the IC50 is over 10000 nM. Further, the viability, T/C (compound 0.0316 µM) is 98% and 93.4%. For the same compound, the viability, T/C (compound 0.1 µM) was 93.6% and 101%. For the setting “compound 0.316 µM”, the viability, T/C is 89.4% and 103%. The viability, T/C (compound 1 µM) was 110% and 109%. Under “compound 3.16 µM”, the viability, T/C was 86.9% and 78.7%. For the same compound, the viability, T/C (compound 10 µM) was 62.2% and 53.5%.

With `COc1ccc([C@@H](O)c2cc(-c3ncnc4cc(N5CCOCC5)ccc34)c(F)cc2Cl)nn1`, the IC50 was over 10000 nM. The viability, T/C (compound 0.0316 µM) is 102% and 90.1%. Also, the viability, T/C (compound 0.1 µM) is 101% and 86%. Besides, the viability, T/C (compound 0.316 µM) is 94.7% and 86.4%. Moreover, the viability, T/C (compound 1 µM) is 95.4% and 98.6%. The viability, T/C (compound 3.16 µM) was 92.6% and 80.2%. For the setting “compound 10 µM”, the viability, T/C was 92.5% and 71%.

Regarding `COc1cccc2c1C(=O)c1c(O)c3c(c(O)c1C2=O)CC(O)(C(=O)CO)CC3OC1CC(N)C(O)C(C)O1` (stereo not drawn), the IC50 was 483 nM and 188 nM. For the same compound, the viability, T/C (compound 0.0316 µM) is 90% and 75.6%. Moreover, the viability, T/C (compound 0.1 µM) was 108% and 58%. The viability, T/C (compound 0.316 µM) is 54.2% and 42.7%. Where the note is “compound 1 µM”, the viability, T/C is 34.5% and 24.4%. In addition, the viability, T/C (compound 3.16 µM) is 7.31% and 2.77%. The viability, T/C (compound 10 µM) was 8.24% and 9.84%.

With `Nc1ccccc1NC(=O)c1ccc(CNC(=O)OCc2cccnc2)cc1`, the IC50 was over 10000 nM. For the same compound, for the setting “compound 0.0316 µM”, the viability, T/C was 102% and 79.6%. Moreover, the viability, T/C (compound 0.1 µM) was 107% and 81.1%. For the same compound, the viability, T/C (compound 0.316 µM) was 116% and 94.4%. Besides, the viability, T/C (compound 1 µM) was 121% and 101%. Moreover, for the setting “compound 3.16 µM”, the viability, T/C was 135% and 104%. Moreover, the viability, T/C (compound 10 µM) was 87.6% and 71.5%.

Consider `Nc1ccn(C2OC(CO)C(O)C2(F)F)c(=O)n1` (stereo not drawn), for which the IC50 is 83.9 nM and 49.5 nM. The viability, T/C (compound 0.0316 µM) is 83.5% and 62.6%. Further, for the setting “compound 0.1 µM”, the viability, T/C is 43.6% and 29.8%. Besides, the viability, T/C (compound 0.316 µM) is 33.7% and 28.5%. Further, the viability, T/C (compound 1 µM) is 37.7% and 30.3%. For the same compound, for the setting “compound 3.16 µM”, the viability, T/C was 35.4% and 25.7%. In addition, for the setting “compound 10 µM”, the viability, T/C is 23.9% and 20.4%.

Take `O=C(c1cc(Cc2n[nH]c(=O)c3ccccc23)ccc1F)N1CCN(C(=O)C2CC2)CC1`: the IC50 was over 10000 nM. Also, the viability, T/C (compound 0.0316 µM) was 98% and 94.5%. Further, the viability, T/C (compound 0.1 µM) is 100% and 97.8%. Moreover, the viability, T/C (compound 0.316 µM) was 101% and 98.4%. For the setting “compound 1 µM”, the viability, T/C is 107% and 99.2%. Moreover, the viability, T/C (compound 3.16 µM) is 114% and 91.3%. The viability, T/C (compound 10 µM) was 91.4% and 100%.

Turning to `O=c1[nH]cc(F)c(=O)[nH]1`, the concentration for half-maximal inhibition (IC50) was 1650 nM and 1700 nM. For the same compound, the viability, T/C (compound 0.0316 µM) was 103% and 83.9%. For the same compound, the viability, T/C (compound 0.1 µM) is 94.2% and 84.8%. The viability, T/C (compound 0.316 µM) was 97% and 96.9%. In addition, the viability, T/C (compound 1 µM) is 57%. Also, for the setting “compound 3.16 µM”, the viability, T/C is 44.8% and 48%. Further, the viability, T/C (compound 10 µM) is 35.4% and 35.5%.
